Source: patent publication US8901090B2, “Method of treating otitis externa using macrocyclic lactone compound” (Galderma S.A., priority 2010, dated 2014)

Assay: Topical treatment of patients with acute otitis externa with ivermectin lotion (informal trials, Examples 3-6)
Assay type: in vivo, human
Text: The otic composition of the present invention described above is applied into the external auditory canal and on the auricle of the affected ear. The lotion, gel, or ointment can be applied with an applicator into the external auditory canal by the patient or others. Preferably, the applicator has a smooth surface, for example, a glass rod, coated with the lotion, gel, or ointment. Although cotton swab can be used, precaution should be exercised, because cotton swab is rough and it can cause irritation to the epidermis of the external auditory canal, and cotton residue left in the ear canal can cause further complication of the condition. The composition in the form of liquid suspension can be dropped or sprayed into the external auditory canal. The otic composition can be packaged for proper dosing by the patients. Moreover, the otic composition can also be integrated into or applied on an absorbent material, such as a strip of cotton fabric or medical dressing, and then the absorbent material is inserted into the external auditory canal by a physician as needed.
Operating with informed consent of individuals, individuals were treated with the otic composition and the method of the present invention for treating otitis externa, as described in Examples 3 to 7.
A person presented with acute otitis externa, symptoms including pain, tenderness, and swelling of the right ear canal. […]

ivermectin
effectiveness in treating otitis externa (otic composition containing ivermectin at a concentration as low as 0.075%): effective
time until dramatic resolution of the symptoms (summary of Examples 3 through 6, otic composition containing 0.075% of ivermectin): ≤ 24 h
